For orientation: IC50 means the concentration needed to halve the response being measured.

Our source for the IC50 values is patent US20230031406A1, “COMPOUNDS AND COMPOSITIONS FOR TREATING CONDITIONS ASSOCIATED WITH NLRP ACTIVITY” (Novartis AG, priority 2018, published 2023).

Where two headings read alike, the source gives them in different places.

The test system of this experiment is PMA-differentiated THP-1 cells. In words: IL-1β production in PMA-differentiated THP-1 cells stimulated with gramicidin (hTHP-1 assay containing 2% fetal bovine serum; Procedures 1 and 2). The class given is cell-based, human. Conditions: 2% fetal bovine serum. An outline of the steps:
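Compound titrations in 0.37% final DMSO were added to THP-1 cells that had been plated after 16-18 h PMA treatment, 50,000 per well in 2% FBS. One hour later the cells received gramicidin (5 μM, 2 h) and were centrifuged. HTRF detected IL-1β in the collected supernatants.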

Where [1] appears, read: Homo sapiens, THP-1, Table B1, class symbols, read-out: Average IC50 of compounds in hTHP-1 assay: hTHP-1 IC50.
Setting [2] is: Homo sapiens, THP-1, Table B2, class symbols, read-out: hTHP-1 IC50.
Setting [3] is: Homo sapiens, THP-1, Table B4, class symbols, read-out: hTHP-1 IC50.
Setting [4] is: Table B2, class symbols, read-out: hTHP-1 IC50.
[5] abbreviates: Homo sapiens, THP-1, Table B2, numeric bounds, read-out: hTHP-1 IC50.

`CCn1cc(F)c(S(N)(=O)=NC(=O)Nc2c3c(nc4c2CC[C@H]4C)CCC3)n1` (stereo partly drawn) [Example 602, 1-Ethyl-4-fuoro-N′-(((R)-3-methyl-1,2,3,5,6,7-hexahydrodicyclopenta[b,e]pyridin-8-yl)carbamoyl)-1H-pyrazole-3-sulfonimidamide]: the concentration for half-maximal inhibition (IC50) (Homo sapiens, THP-1, Table B3, hTHP-1 assay, class symbols, read-out: IC50) was 8 to 40 nM. Turning to `CC1CCc2c1nc1c(c2NC(=O)N=S(N)(=O)c2cc(C(C)(C)O)cs2)CCC1` (single isomer, unassigned) [Compound 141ab, (R,S) or (R,R)-4-(2-hydroxypropan-2-yl)-N′-((3-methyl-1,2,3,5,6,7-hexahydro-dicyclopenta[b,e]pyridin-8-yl)carbamoyl)thiophene-2-sulfonimidamide], under setting [1], the IC50 fell in the range of 200 to 1000 nM.

Take `CC(C)(O)c1ncc(S(N)(=O)=NC(=O)Nc2c3c(nc4c2CCC4O)CCC3)s1` (stereo not drawn) [Compound 178, N′-((3-hydroxy-1,2,3,5,6,7-hexahydrodicyclopenta[b,e]pyridin-8-yl)carbamoyl)-2-(2-hydroxypropan-2-yl)thiazole-5-sulfonimidamide]: the IC50 under setting [1] lay within 5000 to 30000 nM. As for `Cc1c(C(F)(F)F)nc2c(c1NC(=O)N=S(N)(=O)c1ccn(C(C)C)n1)CCC2` (stereo not drawn) [Compound 628, 1-Isopropyl-N′-((3-methyl-2-(trifluoromethyl)-6,7-dihydro-5H-cyclopenta[b]pyridin-4-yl)carbamoyl)-1H-pyrazole-3-sulfonimidamide], under setting [2], the 50% inhibitory concentration (IC50) was in the range of 200 to 1000 nM. For the compound `Cc1c(C2CC2)nc(C2CC2)c(C)c1NC(=O)N=S(N)(=O)c1cc(C(C)(C)O)cs1` (single isomer, unassigned) [Compound 612b, (R) or (S)-N′-((2,6-dicyclopropyl-3,5-dimethylpyridin-4-yl)carbamoyl)-4-(2-hydroxypropan-2-yl)thiophene-2-sulfonimidamide], under setting [2], the 50% inhibitory concentration (IC50) lay within 1000 to 5000 nM.

On to `Cc1c(C2(F)CC2)nc2c(c1NC(=O)N=S(N)(=O)c1cc(C(C)(C)O)cs1)CCC2` (stereo not drawn) [Compound 722], for which the half-maximal inhibitory concentration (IC50) under setting [2] fell in the range of 1000 to 5000 nM. `CCc1cc(NC(=O)N=S(N)(=O)c2cnc(C(C)(C)O)s2)c2c(n1)CCC2` (single isomer, unassigned) [Compound 137b, (S) or (R)-N′-((2-ethyl-6,7-dihydro-5H-cyclopenta[b]pyridin-4-yl)carbamoyl)-2-(2-hydroxypropan-2-yl)thiazole-5-sulfonimidamide]: the IC50 (Table B1, numeric bounds, read-out: Average IC50 of compounds in hTHP-1 assay: hTHP-1 IC50) was over 30000 nM. Turning to `CCn1ccc([S@@](N)(=O)=NC(=O)Nc2c3c(nc4c2CCC42CC2)CCC3)n1` [Compound 604a], under setting [2], the IC50 lay within 5000 to 30000 nM. Regarding `CCn1cc(F)c(S(N)(=O)=NC(=O)Nc2c3c(nc(C(F)(F)F)c2-c2cccc(F)c2)CCC3)n1` (single isomer, unassigned) [Example 781, (R) or (S)-1-ethyl-4-fluoro-N′-((3-(3-fluorophenyl)-2-(trifluoromethyl)-6,7-dihydro-5H-cyclopenta[b]pyridin-4-yl)carbamoyl)-1H-pyrazole-3-sulfonimidamide], the IC50 (Table B4, class symbols, read-out: hTHP-1 IC50) lay within 8 to 40 nM. Regarding `CC(C)c1ncc(F)c(C(C)C)c1NC(=O)N=S(N)(=O)c1ncc(C(C)(C)O)s1` (single isomer, unassigned) [Compound 165b], under setting [1], the IC50 lay in the range of 5000 to 30000 nM.

For the compound `CC(C)n1nc(S(N)(=O)=NC(=O)Nc2c3c(nc4c2CCC4(C)C)CCC3)cc1C(C)(C)O` (stereo not drawn) [Compound 615, N′-((3,3-dimethyl-1,2,3,5,6,7-hexahydrodicyclopenta[b,e]pyridin-8-yl)carbamoyl)-5-(2-hydroxypropan-2-yl)-1-isopropyl-1H-pyrazole-3-sulfonimidamide], the half-inhibitory concentration (IC50) under setting [2] was 1000 to 5000 nM. For `Cc1sc(S(N)(=O)=NC(=O)Nc2c3c(nc4c2CCC4)CCC3)cc1C(C)(C)O` (single isomer, unassigned) [Compound 107a, (R) or (S)-N′-((1,2,3,5,6,7-hexahydrodicyclo-penta[b,e]pyridin-8-yl)carbamoyl)-4-(2-hydroxypropan-2-yl)-5-methylthiophene-2-sulfonimidamide], under “Table B1, class symbols, read-out: Average IC50 of compounds in hTHP-1 assay: hTHP-1 IC50”, the IC50 was 200 to 1000 nM. For `CCn1cc(F)c(S(N)(=O)=NC(=O)Nc2c(-c3ccccc3)cnc3c2CCC3)n1` (stereo not drawn) [Example 745, 1-Ethyl-4-fluoro-N′-((3-phenyl-6,7-dihydro-5H-cyclopenta[b]pyridin-4-yl)carbamoyl)-1H-pyrazole-3-sulfonimidamide], under setting [3], the half-inhibitory concentration (IC50) is 1000 to 5000 nM. `CCc1c(C)nc2c(c1NC(=O)N=S(N)(=O)c1cnc(C(C)(C)O)s1)CCC2` (single isomer, unassigned) [Compound 117b, (R) or (S)-N′-((3-ethyl-2-methyl-6,7-dihydro-5H-cyclopenta[b]pyridin-4-yl)carbamoyl)-2-(2-hydroxypropan-2-yl)thiazole-5-sulfonimidamide]: the concentration for half-maximal inhibition (IC50) under setting [1] is 5000 to 30000 nM.

Consider `CC(C)c1nc(CO)c(S(N)(=O)=NC(=O)Nc2c3c(nc4c2CCC4(C)C)CCC3)s1` (single isomer, unassigned) [Compound 680b, (R) or (S)-N′-((3,3-dimethyl-1,2,3,5,6,7-hexahydrodicyclopenta [b,e]pyridin-8-yl)carbamoyl)-4-(hydroxymethyl)-2-isopropylthiazole-5-sulfonimidamide], for which the IC50 under setting [4] lay in the range of 1000 to 5000 nM. Regarding `Cc1c(C(F)(F)F)nc2c(c1NC(=O)N=S(N)(=O)c1ccn(C(C)C)n1)CCC2` (single isomer, unassigned) [Compound 628a, (S) or (R)-1-Isopropyl-N′-((3-methyl-2-(trifluoromethyl)-6,7-dihydro-5H-cyclopenta[b]pyridin-4-yl)carbamoyl)-1H-pyrazole-3-sulfonimidamide], the IC50 under setting [5] is over 30000 nM. Regarding `CNS(=O)(=NC(=O)Nc1c2c(nc3c1CCC3)CCC2)c1ccc(CN(C)C)cc1` (stereo not drawn) [Compound 120, 4-((Dimethylamino)methyl)-N′-((1,2,3,5,6,7-hexahydrodicyclopenta[b,e]pyridin-8-yl)carbamoyl)-N-methylbenzenesulfonimidamide], the IC50 under setting [1] lay in the range of 200 to 1000 nM. `Cc1c(C(F)(F)F)nc2c(c1NC(=O)N=[S@@](N)(=O)c1ccn(C)n1)CCC2` [Compound 730b]: under setting [2], the IC50 was 1000 to 5000 nM. Regarding `CNS(=O)(=O)c1cccc(S(N)(=O)=NC(=O)Nc2c3c(nc4c2CCC4(C)C)CCC3)c1` (stereo not drawn) [Compound 735, 3-(N′-((3,3-dimethyl-1,2,3,5,6,7-hexahydrodicyclopenta [b,e]pyridin-8-yl)carbamoyl)sulfamidimidoyl)-N-methylbenzenesulfonamide], the half-maximal inhibitory concentration (IC50) under setting [2] fell in the range of 1000 to 5000 nM. In the case of `CCn1cc(F)c(S(N)(=O)=NC(=O)Nc2c3c(nc(C(F)(F)F)c2C2CC2)CCC3)n1` (stereo not drawn) [Example 744, N′-((3-cyclopropyl-2-(trifluoromethyl)-6,7-dihydro-5H-cyclopenta[b]pyridin-4-yl)carbamoyl)-1-ethyl-4-fluoro-1H-pyrazole-3-sulfonimidamide], under setting [3], the half-maximal inhibitory concentration (IC50) was in the range of 40 to 200 nM. With `Cc1c(C(F)(F)F)nc2c(c1NC(=O)N=S(N)(=O)c1cnc(C(C)(O)CO)s1)CCC2` (single isomer, unassigned) [Compound 605a, (S, RS) or (R, RS) 2-(-1,2-dihydroxypropan-2-yl)-N′-((3-methyl-2-(trifluoromethyl)-6,7-dihydro-5H-cyclopenta[b]pyridin-4-yl)carbamoyl)thiazole-5-sulfonimidamide], under setting [4], the IC50 was 200 to 1000 nM.

In the case of `CC1(C)CCc2c1nc1c(c2NC(=O)N=S(N)(=O)c2sc(C(C)(O)CO)cc2F)CCC1` (single isomer, unassigned) [Compound 699b, (S, R) and (R, R) or (R, S) and (S, S)-5-(1,2-Dihydroxypropan-2-yl)-N′-((3,3-dimethyl-1,2,3,5,6,7-hexahydrodicyclopenta [b,e]pyridin-8-yl)carbamoyl)-3-fluorotliophene-2-sulfoni midamide], the IC50 under setting [4] lay within 8 to 40 nM.

Take `Cc1nc2c(c(NC(=O)N=S(N)(=O)c3ncc(C(C)(C)O)s3)c1C1CC1)CCC2` (single isomer, unassigned) [Compound 618a, (S) or (R)-N′-((3-cyclopropyl-2-methyl-6,7-dihydro-5H-cyclopenta[b]pyridin-4-yl)carbamoyl)-5-(2-hydroxypropan-2-yl)thiazole-2-sulfonimidamide]: the half-maximal inhibitory concentration (IC50) under setting [5] was over 30000 nM.

Turning to `CCC1CCc2c1nc1c(c2NC(=O)N=S(N)(=O)c2sc(C(C)(C)O)cc2F)CCC1` (single isomer, unassigned) [Compound 671b, (S, R) or (S, S) or (R, S) or (R, R)-N′-((3-ethyl-1,2,3,5,6,7-hexahydrodicyclopenta [b,e]pyridin-8-yl)carbamoyl)-3-fluoro-5-(2-hydroxypropan-2-yl) thiophene-2-sulfonimidamide], the IC50 under setting [4] is 5000 to 30000 nM.

Take `Cc1c(C2CC2)nc2c(c1NC(=O)N=S(N)(=O)c1cc(C(C)(C)O)cs1)CCC2C` (single isomer, unassigned) [Compound 656a, (R, R) or (R, S) or (S, R) or (S, S)-N′-((2-Cyclopropyl-3,7-dimethyl-6,7-dihydro-5H-cyclopenta[b]pyridin-4-yl)carbamoyl)-4-(2-hydroxypropan-2-yl)thiophene-2-sulfonimidamide]: the half-inhibitory concentration (IC50) under setting [4] was in the range of 200 to 1000 nM. As to `CC1(C)CCc2c1nc1c(c2NC(=O)N=S(N)(=O)c2cnn(C(F)F)c2)CCC1` (single isomer, unassigned) [Compound 637b, (S) or (R)-1-(Difluoromethyl)-N′-((3,3-dimethyl-1,2,3,5,6,7-hexahydrodicyclopenta [b,e]pyridin-8-yl)carbamoyl)-1H-pyrazole-4-sulfonimidamide], the IC50 is 1000 to 5000 nM under setting [2] and over 30000 nM under setting [5].
